Experimental data as given in patent US20120142722A1, “CONJUGATES OF CYTOTOXIC DRUGS” (priority 2009, published 2012).
Where “and” joins values, the source holds several entries; their conditions need not be identical. Identical values can stand only once. Entries after “also recorded” stand apart in the source; their conditions may differ. Like-named read-outs stand apart in the source and are kept apart here.

Legend:
[1] = mouse, in vivo
[2] = test system: A375 melanoma tumors; assay: Tumor growth inhibition in subcutaneous A375 melanoma xenograft; assay type: in vivo, athymic nude mice
[3] = test system: A375-melanoma cells; assay: In vitro cytotoxicity, XTT tetrazolium dye reduction cell viability assay; assay type: cell-based; settings: Homo sapiens
[4] = White blood cell count in A375 tumor bearing mice; assay type: in vivo; settings: ATT-1 3 doses of 30 mg/kg, CCNU 6 doses of 15 mg/kg; tested 1 and 4 days post last dose
Protocol: Repeated doses of ATT-1 (3 doses of 30 mg/kg) and CCNU (6 doses of 15 mg/kg) were administered to A375 tumor bearing mice and WBC was tested (at AML, Herzelia, Israel) 1 and 4 days post last dose.

[5] = Maximal tolerated dose in healthy nude mice; settings: female, athymic (nu/nu), mouse, in vivo, iv; i.v. on 5 consecutive days; determined 24 hr after the last dose; no lethality and body weight loss <20%
Protocol: Increasing doses of ATT-11E were tested on nude mice for their effect on body weight. Healthy female athymic (nu/nu) mice (6-8 weeks) (Harlan Inc., Jerusalem, Israel) were used for determination of maximum tolerable dose (MTD). MTD was defined as the maximum dose that caused no drug-related lethality and that produced animal body weight loss of <20% of original weight. ATT-11E was dissolved in phosphate buffer (pH 7.4) containing 10% DMSO and 30% cremophor and administered by i.v. injection. ATT-11E was administered on 5 consecutive days. Body weight of mice was monitored daily and MTD was determined 24 hr post last dose.

[6] = A-375, 48 h, read-out: IC50 (inhibitory concentration of 50% of cells)
[7] = female, beagle, dog, in vivo, iv, 6 mg/kg

In the case of `CCCCCC(CCC1CCC(NC(=O)N(CCCl)N=O)CC1)(C(=O)O)C(=O)O` (stereo not shown) [ATT-1], the Weight loss [1] is reported as 14%, the T/C ([2]; mouse, in vivo) is reported as 0.24 and the “T/C, ratio of tumor volume of treated compared to control” value ([2]; mouse, in vivo) is reported as 0.33. For the same compound, the “T/C, tumor volume treated compared to control” value ([2]; mouse, in vivo) was 0.52, the Tumor growth inhibition ([2]; mouse, in vivo) was 48% and 76% and the “Tumor growth inhibition compared with control” value ([2]; mouse, in vivo) was 77% and 73%. The IC50 [3, 6] was 545 µM and the “Reduction of WBC compared to the control” value [4] was 27%.

`CCOC(=O)C(C)(CCC1CCC(NC(=O)N(CCCl)N=O)CC1)C(=O)OCC` (stereo not shown) [ATT-5E] showed an IC50 [3, 6] of 130 µM.

For `CCOC(=O)C(C)(CCC1CCN(C(=O)Oc2ccc3nc4c(c(CC)c3c2)Cn2c-4cc3c(c2=O)COC(=O)C3(O)CC)CC1)C(=O)OCC` (stereo not shown) [ATT-11E], the MTD at 5 days [5] was > 40 mg/kg, the “% inhibition” value ([2]; mouse, in vivo, 1 mg/kg) was 54% and the T/C ([2]; mouse, in vivo, 1 mg/kg) was 0.46 and 0.62. For the same compound, the “% inhibition” value ([2]; mouse, in vivo, 2.5 mg/kg) was 65%, the T/C ([2]; mouse, in vivo, 2.5 mg/kg) was 0.35 and the T/C ([2]; mouse, in vivo, 3 mg/kg) was 0.41. For the same compound, the “% inhibition” value ([2]; mouse, in vivo, 5 mg/kg) was 72%, the T/C ([2]; mouse, in vivo, 5 mg/kg) was 0.28 and the T/C ([2]; mouse, in vivo, 9 mg/kg) was 0.39. The “% inhibition” value ([2]; mouse, in vivo, 20 mg/kg) was 88%, the “Tumor volume growth inhibition (TVI)” value ([2]; mouse, in vivo, 20 mg/kg) was 97% and the “% inhibition” value ([2]; mouse, in vivo, 30 mg/kg) was 93%. The T/C ([2]; mouse, in vivo, 30 mg/kg) was 0.07, the T/C ([2]; mouse, in vivo, 40 mg/kg) was 0.1 and the “Tumor volume growth inhibition (TVI)” value ([2]; mouse, in vivo, 40 mg/kg) was 90%. The IC50 ([3]; A-375, 24 h) was 0.6 µM and the IC50 [3, 6] was 0.6 µM.

With `CCc1c2c(nc3ccc(OC(=O)N4CCC(CCC(C)(C(=O)OC(C)(C)C)C(=O)OC(C)(C)C)CC4)cc13)-c1cc3c(c(=O)n1C2)COC(=O)C3(O)CC` (stereo not shown) [ATT-11TBE] the “Plasma level of derived SN-38 at 24 hours after administration (in words)” value (dog, in vivo) was “still detectable”, the “AUC of metabolite SN-38, fold larger than SN-38 derived from CPT-11” value [7] was 3.6 fold and the “Plasma half-life (t1/2) of metabolite SN-38, fold longer than SN-38 derived from CPT-11” value [7] was 3.1 fold. The “Tumor growth delay after the last dose (in words)” value ([2]; mouse, in vivo) was “complete tumor regression; also recorded: substantially inhibited tumor growth, even 22 days after the last dose”, the “Tumor volume growth inhibition (TVI)” value ([2]; mouse, in vivo, 5 mg/kg) was 97% and the “Tumor volume growth inhibition (TVI)” value ([2]; mouse, in vivo, 20 mg/kg) was 100%. The IC50 ([3]; A-375, 24 h) was 0.8 µM.

For `O=NN(CCCl)C(=O)NC1CCCCC1` [CCNU, Chloroethylcyclo-hexylnitrosourea, reference compound], the Weight loss [1] was 19%, the “T/C, tumor volume treated compared to control” value ([2]; equal total dose: ATT-1 3 doses of 30 mg/kg, CCNU 6 doses of 15 mg/kg, day 23) was 0.47 and the Tumor growth inhibition ([2]; equi-molar doses: ATT-1 3×30 mg/kg, CCNU 3×15 mg/kg) was 48%. The T/C ([2]; equi-molar doses: ATT-1 3×30 mg/kg, CCNU 3×15 mg/kg, day 30) was 0.56, the IC50 ([3]; A-375, 48 h, A375 cells, 48 hours of incubation, XTT, read-out: IC50 (inhibitory concentration of 50% of cells)) was 200 µM and the “Reduction of WBC compared to the control” value [4] was 89%.

In the case of `CCc1c2c(nc3ccc(OC(=O)N4CCC(N5CCCCC5)CC4)cc13)-c1cc3c(c(=O)n1C2)COC(=O)[C@]3(O)CC` [CPT-11, Irinotecan, reference compound], the “Plasma level of derived SN-38 at 24 hours after administration (in words)” value (6 mg/kg intravenous, beagle dogs, 24 hours) is reported as “below detection level”, the “Tumor growth delay after the last dose (in words)” value ([2]; i.v., ATT-11TBE 20 mg/kg 3 times a week (9 doses), CPT-11 75 mg/kg once a week for three weeks, 22 days after the last dose) is reported as “never reached the complete tumor regression” and the IC50 ([3]; A-375, 24 h, A375 cells, Example 10, incubated for 24 hr, XTT, read-out: IC50) is reported as 44 µM. The IC50 ([3]; A-375, 24 h, A375 cells, Example 15 / FIG. 14, 24 hours of incubation, read-out: IC50) was 9 µM.
